# Like-named read-outs stand apart in the source and are kept apart here.
# B1: histidine protein phosphatase purified from rabbit liver (protein)
# chain: AAAGLAQIPDVDIDSDGVFKYVLIRVHAAPPSEAPGGESKDIVRGYKWAEYHADIYDKVSGELQKKGHDCECLGGGRISHQSQDRKIHVYGYSMGYGRAQHSVSTEKIRAKYPDYEVTWADDGY
# Tests used:
# histidine phosphatase = experiment: Reagents affecting histidine phosphatase activity (dephosphorylation of 32P-CheA); type: biochemical, rabbit
# Method: (§1) The activity of the soluble histidine phosphatase is determined from the dephosphorylation of ^32P-labelled histidine-phosphorylated protein (CheA) as substrate. CheA is a recombinant bacterial histidine autokinase (Bilwes A M, Alex L A, Crane B R, Simon M I (1999) Cell 96:131-141); the C-terminal kinase domain phosphorylates the N-terminal His48. […] Detection on the one hand via ammonium molybdate, and on the other hand by autoradiography (FIG. 2).
# (§2) The substrate (10 μl of ^32P-CheA) is mixed with […] of assay buffer (100 mM triethanolamine/hydrochloric acid pH 8.0, 0.1% 2-mercaptoethanol, 0.02% sodium nitrite) and the enzyme solution. The reaction takes place at 37° C. in 30 min. […] After a centrifugation (5 min at 15,800 g), the supernatant is removed and measured in a scintillation counter.
# [1] = system: histidine protein phosphatase; experiment: Hydrolysis of substrates by the novel histidine protein phosphatase (specificity); type: biochemical, rabbit
# Method: as §1, §2
# [2] = biological target: histidine protein phosphatase purified from rabbit liver (rabbit) (UniProt P83468); experiment: cell-based or functional assay
# [3] = biological target: 32P-labelled histidine-phosphorylated CheA (recombinant bacterial histidine autokinase)
# [4] = biological target: [gamma-32P] His-nucleoside diphosphate kinase
# [5] = biological target: [gamma-32P] Ser/Thr-Casein
# [6] = type: physicochemical, rabbit; conditions: in the crude homogenate and in the partially purified fractions
molecule,measurement,setting,value
[Ca+2] [Ca^2+],Activity (%),histidine phosphatase; reagent concentration 1 mM,165%
same,Activity (%),histidine phosphatase; reagent concentration 10 mM,240%
O=C(O)CN(CCOCCOCCN(CC(=O)O)CC(=O)O)CC(=O)O [EGTA],Activity (%),histidine phosphatase; reagent concentration 5 mM,91%
[Mg+2] [Mg^2+],Activity (%),histidine phosphatase; reagent concentration 1 mM,142%
same,Activity (%),histidine phosphatase; reagent concentration 10 mM,226%
[O]=[Mo](=[O])([O-])[O-] [Molybdate],Activity (%),histidine phosphatase; 10 µM,71%
C=C1[C@@H](O)[C@@H]2O[C@]3(CC[C@H](/C=C/[C@@H](C)[C@@H]4CC(C)=C[C@@]5(O[C@H](C[C@@](C)(O)C(=O)O)CC[C@H]5O)O4)O3)CC[C@H]2O[C@@H]1[C@@H](O)C[C@H](C)[C@H]1O[C@@]2(CCCCO2)CC[C@H]1C [Okadaic acid],Activity (%),histidine phosphatase; reagent concentration 10 μM,108%
same,Inhibition of histidine phosphatase activity,histidine phosphatase; text statement referring to Table 2,not being inhibited
CO[C@H]([C@H](O)CC(=O)[C@@H](C)[C@@H](O)CC[C@@H](C)[C@@H]1O[C@]2(CC[C@@H](C)[C@H](CC[C@H](C)C(C)=O)O2)CC[C@@H]1C)[C@H](OC(=O)C[C@@H](O)C1=C(C)C(=O)OC1=O)C(C)C [Tautomycin],Activity (%),histidine phosphatase; reagent concentration 0.5 nM,90%
[O]=[V]([O-])([O-])[O-] [Vanadate],Inhibition of histidine phosphatase activity,histidine phosphatase,not being inhibited
same,Activity (%),histidine phosphatase; 10 µM,62%
O=[N+]([O-])c1ccc(OP(=O)(O)O)cc1 [p-nitrophenyl phosphate],Hydrolysis by the histidine phosphatase,[1],did not hydrolyze
Inhibitor protein I1,Activity (%) of histidine phosphatase with 1 nM reagent,[2],120%
Microcystin,Activity (%),histidine phosphatase; 0.005 µM,110%
B1,Hydrolysis by the novel histidin protein phosphatase,[3],+
same,histidine dephosphorylation of 32P-phosphorylated CheA,[3],"The purified protein shows time-, temperature-, pH- and protein-dependent histidine dephosphorylation of the 32P-phosphorylated CheA"
same,Hydrolysis by the novel histidin protein phosphatase,[4],-
same,Hydrolysis by the novel histidin protein phosphatase,[5],-
same,storage stability,[6],shows storage stability

# From patent US6812015B1, “Histidine protein-phosphatase” (Merck Patent Gesellschaft, priority 1999, dated 2004)
